Measured values published in patent US20250263644A1, “COMPOSITIONS COMPRISING YEAST CELLS AND POLYPHENOLS AND THEIR USE” (INSTITUT NATIONAL D'ETUDES SUPERIEURES AGRONOMIQUES DE …, priority 2015, published 2025).

How the values were obtained:
[1] = tested on: yeast cells; test: Adsorption isotherms: polyphenols adsorbed by yeast; assay type: binding, Saccharomyces cerevisiae; details: 24 h contact in model wine, 10^8 cells/mL, A280 of supernatant; FIG. 7a
Method: A contact time of 24 h was chosen for adsorption experiments. A stock solution of polyphenols with a molecular weight below 620 Da was prepared by dissolving catechin powder in a model wine at a concentration of 10 g/L. A stock solution of polyphenols with a molecular weight above 620 Da was prepared by dissolving grape skin tannins with a DPm of 20 in a model wine at a concentration of 10 g/L
Dilutions of both stock solutions were performed to get a final concentration range between 0.01 and 5 g/L. All sorption experiments were carried out by mixing equal volumes of a 2×g·L^−1 polyphenol solution (x being the final desired polyphenol concentration) and of a 2·10^8 cells/mL suspension (final concentration 10^8 cells/mL). Samples (2 ml) were placed in a 2 mL tightly closed Eppendorf in order to minimize headspace and were stirred continuously (Stuart rotator SB3, 40 rpm) in absence of light and at room temperature. […] The total polyphenol concentrations in the bulk were determined by absorbency measurements at 280 nm after adequate dilution. Total encapsulated polyphenol with a molecular weight below 620 Da and total encapsulated polyphenols with a molecular weight above 620 Da were calculated from the difference in absorbency between the samples and the corresponding controls using: […]

[2] = tested on: yeast cells; test: Evaluation of the reversibility of polyphenol adsorption; assay type: binding, Saccharomyces cerevisiae; details: pellets re-suspended in model wine without polyphenols, 24 h; FIG. 7b
Method: The yeast pellets obtained by centrifugation after adsorption above were re-suspended in 2 ml of a model wine without polyphenols. Samples were stirred for 24 h and the supernatants recovered. The adsorption reversibility was evaluated through the quantity of polyphenols recovered in supernatants.

catechin
amounts of polyphenols adsorbed by yeast, compared with DPm 20 [1]: about 10 times lower | reversibility of interactions between yeast and adsorbed polyphenols [2]: fully reversible
